Assay results published in US20250376483A1, “PRODRUGS OF PAN-KRAS INHIBITORS” (Mirati Therapeutics, Inc., priority 2022, published 2025).

How the values were obtained:
[1] = Whole Blood Stability Assay (mouse whole blood); assay type: in vitro ADME; details: CD-1 mouse blood, EDTA-K2, final conc. 2 μM, 37° C., 0-120 min; for half-life at 2 μM: male, fresh whole blood, read-out: Mouse Whole Blood Stability t1/2
Method: Whole Blood Stability Assay
This Example illustrates that exemplary compounds of the present invention is cleavage in mouse whole blood.
(§1) Test Compounds and Stock Solutions: Stock Conc. 10 mM; Final Conc. 2 μM
(§2) Test Compound and Control Working Solution Preparation:
• Intermediate solution: 5 μL of compound stock solution (10 mM in dimethyl sulfoxide (DMSO)) were diluted with […] of DMSO (intermediate solution concentration: 1 mM, 100% DMSO) • Propantheline bromide (control) intermediate solution: 5 μL of propantheline stock solution (10 mM in ultra-pure water) were diluted with 45 μL of ultra-pure water (intermediate solution concentration: 1 mM) • Working solution 1: 20 μL of test compound intermediate solution (1 mM) were diluted with 180 μL of 45% ACN/H2O (working solution concentration: […], 40.5% ACN, 10% DMSO) • Working solution 2: 20 μL of control intermediate solution (1 mM) were diluted with 180 μL of 45% ACN/H2O (working solution concentration: 100 μM, 40.5% ACN, 10% DMSO) • Species/Matrix: CD-1 Mouse Blood • No. of Individuals: n>3 Male • Anticoagulant Used: EDTA-K2
• The fresh blood was collected on the day of experiment and pre-warmed in a water bath at 37° C. • Using an Apricot automation workstation, 98 μL/well of blank blood were added to all 96-well reaction plates (Blank, T0, T10, T30, T60 and T120). • An Apricot automation workstation was used to add 2 μL/well of working solution (100 μM) to all reaction plates except Blank (T0, T10, T30, T60 and T120). • All reaction plates containing mixtures of compound and blood were incubated at 37° C. in water bath. • The reaction plates were incubated at 37° C., and timer was started. • At the end of incubation, mixed 100 μL water with 100 μL spiked blood samples, then added 800 μL of stop solution (200 ng/mL tolbutamide and 200 ng/mL labetalol in ACN) to precipitate protein. Mixed thoroughly. • Each plate was sealed and shaken for 20 minutes. • After shaking, each plate was centrifuged at 4000 rpm and 4° C. for 20 minutes. • After centrifugation, an Apricot automation workstation was used to transfer 150 μL of supernatant from each reaction plate to its corresponding bioanalysis plate. • Each bioanalysis plate was submitted to LC-MS/MS analysis.
• The % remaining of test compound after incubation in blood was calculated using following equation:
(§3) [formula] • where PAR is the peak area ratio of analyte versus internal standard (IS) • The appointed incubation time points are TO (0 min), Tn (n=0, 10, 30, 60 and 120 min)

[2] = Plasma Stability Assay (human plasma); assay type: in vitro ADME; details: both sexes; pooled human plasma, heparin, final conc. 2 μM, 37° C., 0-120 min; read-out: Human Plasma Stability t1/2
Method: This Example illustrates that exemplary compounds of the present invention is cleavage in human plasma.
as §1, §2
• Test compound intermediate solution: 10 μL of compound stock solution (10 mM in dimethyl sulfoxide (DMSO)) were diluted with 90 μL of DMSO (intermediate solution concentration: 1 mM, 100% DMSO) • Control intermediate solution: 10 μL of control stock solution (10 mM in dimethyl sulfoxide (DMSO)) were diluted with 90 μL of DMSO (intermediate solution concentration: 1 mM, 100% DMSO) • Species/Matrix: Human Plasma • No. of Individuals: 3 Male & 3 Female • Anticoagulant Used: Heparin
• The pooled frozen plasma was thawed in a water bath at 37° C. prior to experiment. Plasma was centrifuged at 4000 rpm for 5 min and the clots were removed if any. • Using an Apricot automation workstation, 98 μL/well of blank plasma were added to all 96-well reaction plates. (Blank, T0, T10, T30, T60 and T120) • An Apricot automation workstation was used to add 2 μL/well of working solution (100 μM) to all reaction plates except Blank. (T0, T10, T30, T60 and T120) • All reaction plates containing mixtures of compound and plasma were incubated at 37° C. in water bath. • The reaction plates were incubated at 37° C., and timer was started. • At the end of incubation, added 500 μL of stop solution (200 ng/mL tolbutamide and 200 ng/mL labetalol in ACN) to precipitate protein. Mixed thoroughly. • Each plate was sealed and shaken for 20 minutes. • After shaking, each plate was centrifuged at 4000 rpm and 4° C. for 20 minutes • After centrifugation, an Apricot automation workstation was used to transfer 50 μL supernatant into 100 μL HPLC water. • Each bioanalysis plate was sealed and shaken for 10 minutes prior to LC-MS/MS analysis Data Analysis • The % remaining of test compound after incubation in blood was calculated using following equation:
as §3

CCc1c(F)ccc2cc(OC(=O)C3CCC3)cc(N3CCc4c(nc(OC[C@@]56CCCN5C[C@H](F)C6)nc4N4CCC[C@]5(C4)NC(=O)NC5=O)C3)c12 [Example 64, 4-(4-((R)-2,4-dioxo-1,3,7-triazaspiro[4.5]decan-7-yl)-2-(((2R,7aS)-2-fluorotetrahydro-1H-pyrrolizin-7a(5H)-yl)methoxy)-5,8-dihydropyrido[3,4-d]pyrimidin-7(6H)-yl)-5-ethyl-6-fluoronaphthalen-2-yl cyclobutanecarboxylate]
half-life at 2 μM [1]: 2 min
half-life at 2 μM [2]: 33 min

CCc1c(F)ccc2cc(OC(=O)N3CCCCCC3)cc(N3CCc4c(nc(OC[C@@]56CCCN5C[C@H](F)C6)nc4N4CCC[C@]5(C4)NC(=O)NC5=O)C3)c12 [Example 53, 4-(4-((R)-2,4-dioxo-1,3,7-triazaspiro[4.5]decan-7-yl)-2-(((2R,7aS)-2-fluorotetrahydro-1H-pyrrolizin-7a(5H)-yl)methoxy)-5,8-dihydropyrido[3,4-d]pyrimidin-7(6H)-yl)-5-ethyl-6-fluoronaphthalen-2-yl azepane-1-carboxylate]
half-life at 2 μM [1]: > 289 min
half-life at 2 μM [2]: > 289 min

CCc1c(F)ccc2cc(OC(=O)C3CCC3)cc(-c3ncc4c(N5C[C@@H]6C[C@H](C5)[C@H](O)C6)nc(OC[C@@]56CCCN5C[C@H](F)C6)nc4c3F)c12 [Example 13, 5-ethyl-6-fluoro-4-(8-fluoro-2-(((2R,7aS)-2-fluorotetrahydro-1H-pyrrolizin-7a(5H)-yl)methoxy)-4-((1R,5R,6R)-6-hydroxy-3-azabicyclo[3.2.1]octan-3-yl)pyrido[4,3-d]pyrimidin-7-yl)naphthalen-2-yl cyclobutanecarboxylate]
half-life at 2 μM [1]: 6 min
half-life at 2 μM [2]: 16 min

CCc1c(F)ccc2cc(OC(=O)N3CCCCC3)cc(N3CCc4c(nc(OC[C@@]56CCCN5C[C@H](F)C6)nc4N4CCC[C@]5(C4)NC(=O)NC5=O)C3)c12 [Example 48, 4-(4-((R)-2,4-dioxo-1,3,7-triazaspiro[4.5]decan-7-yl)-2-(((2R,7aS)-2-fluorotetrahydro-1H-pyrrolizin-7a(5H)-yl)methoxy)-5,8-dihydropyrido[3,4-d]pyrimidin-7(6H)-yl)-5-ethyl-6-fluoronaphthalen-2-yl piperidine-1-carboxylate]
half-life at 2 μM [1]: 106 min
half-life at 2 μM [2]: > 289 min

CCc1c(F)ccc2cc(OC(=O)C3CC3)cc(N3CCc4c(nc(OC[C@@]56CCCN5C[C@H](F)C6)nc4N4CCC[C@]5(C4)NC(=O)NC5=O)C3)c12 [Example 32, 4-(4-((R)-2,4-dioxo-1,3,7-triazaspiro[4.5]decan-7-yl)-2-(((2R,7aS)-2-fluorotetrahydro-1H-pyrrolizin-7a(5H)-yl)methoxy)-5,8-dihydropyrido[3,4-d]pyrimidin-7(6H)-yl)-5-ethyl-6-fluoronaphthalen-2-yl cyclopropanecarboxylate]
half-life at 2 μM [1]: 2 min
half-life at 2 μM [2]: 51 min

CCC(=O)Oc1cc(-c2ncc3c(N4C[C@@H]5C[C@H](C4)[C@H](O)C5)nc(OC[C@@]45CCCN4C[C@H](F)C5)nc3c2F)c2c(CC)c(F)ccc2c1 [Example 2, 5-ethyl-6-fluoro-4-(8-fluoro-2-(((2R,7aS)-2-fluorotetrahydro-1H-pyrrolizin-7a(5H)-yl)methoxy)-4-((1R,5R,6R)-6-hydroxy-3-azabicyclo[3.2.1]octan-3-yl)pyrido[4,3-d]pyrimidin-7-yl)naphthalen-2-yl propionate]
Mouse Whole Blood Stability t1/2 [1]: 1 min
half-life at 2 μM [2]: 13 min

CCc1c(F)ccc2cc(OC(=O)C34CCC(C3)C4)cc(N3CCc4c(nc(OC[C@@]56CCCN5C[C@H](F)C6)nc4N4CCC[C@]5(C4)NC(=O)NC5=O)C3)c12 [Example 67, 4-(4-((R)-2,4-dioxo-1,3,7-triazaspiro[4.5]decan-7-yl)-2-(((2R,7aS)-2-fluorotetrahydro-1H-pyrrolizin-7a(5H)-yl)methoxy)-5,8-dihydropyrido[3,4-d]pyrimidin-7(6H)-yl)-5-ethyl-6-fluoronaphthalen-2-yl bicyclo[2.1.1]hexane-1-carboxylate]
Mouse Whole Blood Stability t1/2 [1]: 1 min
half-life at 2 μM [2]: 267 min

CCc1c(F)ccc2cc(OC(=O)C(C)C)cc(-c3ncc4c(N5C[C@@H]6C[C@H](C5)[C@H](O)C6)nc(OC[C@@]56CCCN5C[C@H](F)C6)nc4c3F)c12 [Example 3, 5-ethyl-6-fluoro-4-(8-fluoro-2-(((2R,7aS)-2-fluorotetrahydro-1H-pyrrolizin-7a(5H)-yl)methoxy)-4-((1R,5R,6R)-6-hydroxy-3-azabicyclo[3.2.1]octan-3-yl)pyrido[4,3-d]pyrimidin-7-yl)naphthalen-2-yl isobutyrate]
half-life at 2 μM [1]: 3 min
half-life at 2 μM [2]: 27 min

CCc1c(F)ccc2cc(OC(=O)C3(C)CCC3)cc(N3CCc4c(nc(OC[C@@]56CCCN5C[C@H](F)C6)nc4N4CCC[C@]5(C4)NC(=O)NC5=O)C3)c12 [Example 61, 4-(4-((R)-2,4-dioxo-1,3,7-triazaspiro[4.5]decan-7-yl)-2-(((2R,7aS)-2-fluorotetrahydro-1H-pyrrolizin-7a(5H)-yl)methoxy)-5,8-dihydropyrido[3,4-d]pyrimidin-7(6H)-yl)-5-ethyl-6-fluoronaphthalen-2-yl 1-methylcyclobutane-1-carboxylate]
half-life at 2 μM [1]: 2 min
half-life at 2 μM [2]: > 289 min

CCc1c(F)ccc2cc(OC(=O)N3CCCCC3)cc(-c3ncc4c(N5C[C@@H]6C[C@H](C5)[C@H](O)C6)nc(OC[C@@]56CCCN5C[C@H](F)C6)nc4c3F)c12 [Example 7, 5-ethyl-6-fluoro-4-(8-fluoro-2-(((2R,7aS)-2-fluorotetrahydro-1H-pyrrolizin-7a(5H)-yl)methoxy)-4-((1R,5R,6R)-6-hydroxy-3-azabicyclo[3.2.1]octan-3-yl)pyrido[4,3-d]pyrimidin-7-yl)naphthalen-2-yl piperidine-1-carboxylate]
half-life at 2 μM [1]: > 289 min
half-life at 2 μM [2]: > 289 min

CCC(=O)Oc1cc(N2CCc3c(nc(OC[C@@]45CCCN4C[C@H](F)C5)nc3N3CCC[C@]4(C3)NC(=O)NC4=O)C2)c2c(CC)c(F)ccc2c1 [Example 29, 4-(4-((R)-2,4-dioxo-1,3,7-triazaspiro[4.5]decan-7-yl)-2-(((2R,7aS)-2-fluorotetrahydro-1H-pyrrolizin-7a(5H)-yl)methoxy)-5,8-dihydropyrido[3,4-d]pyrimidin-7(6H)-yl)-5-ethyl-6-fluoronaphthalen-2-yl propionate]
half-life at 2 μM [1]: 2 min
half-life at 2 μM [2]: 33 min

CCc1c(F)ccc2cc(OCOC(=O)N(C)C)cc(-c3ncc4c(N5C[C@@H]6C[C@H](C5)[C@H](O)C6)nc(OC[C@@]56CCCN5C[C@H](F)C6)nc4c3F)c12 [Example 20, ((5-ethyl-6-fluoro-4-(8-fluoro-2-(((2R,7aS)-2-fluorotetrahydro-1H-pyrrolizin-7a(5H)-yl)methoxy)-4-((1R,5R,6R)-6-hydroxy-3-azabicyclo[3.2.1]octan-3-yl)pyrido[4,3-d]pyrimidin-7-yl)naphthalen-2-yl)oxy)methyl dimethylcarbamate]
half-life at 2 μM [1]: > 289 min
half-life at 2 μM [2]: > 289 min
